For 79 compounds, RP-LC retention time results are on record in the METLIN SMRT retention time set (Domingo-Almenara et al. 2019).

Molecules are shown by their SMILES.

This data set is described as follows: gradient 5% acetonitrile 3 min, to 50% in 2 min, to 85% in 15 min, held 3 min, 100 µL/min. The note with it: column: Zorbax Extend-C18 2.1 x 50 mm; eluents: water / acetonitrile, 0.1% formic acid. The essentials: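 Retention times come from adduct peaks that were picked computationally and then checked by hand. The standards, pure and pooled in mixtures of ~100 molecules, were run on a Zorbax Extend-C18 column (2.1 × 50 mm, 1.8 μm) at 100 μL/min with water and acetonitrile, each with 0.1% formic acid. Detection was by quadrupole time-of-flight mass spectrometry in positive and negative ionization mode, with a dead volume of 40 μL and a dwell volume of 900 μL.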
`COc1ccc(-n2nc(N3CCCC(C(=O)NC(C)CCc4ccccc4)C3)ccc2=O)cc1` (centres undefined) displayed an RP-LC retention time of 884 s.

Turning to `O=C(Cc1cccs1)N1CCc2cc(-c3csc(C4CC4)n3)ccc21`, the RP-LC retention time is 1120 s.

Regarding `COc1ccc(C2=NC3(CCN(C(C)C)CC3)NC(c3ccccc3O)C2)cc1` (centres undefined), the RP-LC retention time turned out to be 592 s.

As for `O=C(COc1ccc(F)cc1)Nc1cnc(-c2cccnc2)nc1`, the RP-LC retention time stood at 707 s.

`Cn1nc(C(=O)N2CCOCC2)c2c1CCN(C(=O)Nc1ccc(Br)cc1F)C2` returned an RP-LC retention time of 713 s.

Consider `CS(=O)(=O)N1CCN(C(=O)c2coc(NC(=O)c3ccccc3)n2)CC1`, for which the RP-LC retention time worked out at 608 s.

In the case of `Cn1cc(-c2cc3n(n2)CCC(=O)N3CC(=O)NCc2cccnc2)c2ccccc21`, the RP-LC retention time amounted to 566 s.

In the case of `CCOC(=O)c1ccsc1NC(=O)c1cc(C)nn1CC`, the RP-LC retention time amounted to 1080 s.

In turn, `CCCCNC(=O)Cn1c(C(=O)OC)cc2oc3ccccc3c21` showed an RP-LC retention time of 959 s.

`CCn1ccc2sc(C)c(C(=O)N3CCCCC3)c2c1=O` yielded an RP-LC retention time of 684 s.

Consider `COc1ccc(N2CC(NC(=O)c3ccc(S(=O)(=O)N(C)C)cc3)CC2=O)cc1OC` (centres undefined), for which the RP-LC retention time turned out to be 634 s.

`Cc1noc(-c2ccc(NC(=O)C3CC(=O)N(c4ccccc4)C3)cc2)n1` (centres undefined) came in with an RP-LC retention time of 727 s.

Compound `Cc1ccc(Cn2nc3c(S(=O)(=O)N4CCc5ccccc5C4)cccn3c2=O)cc1` yielded an RP-LC retention time of 941 s.

As to `Cc1nc(CCNC(=O)C2CCN(S(=O)(=O)c3ccc(F)c(Cl)c3)CC2)cs1`, the RP-LC retention time turned out to be 762 s.

On to `Cc1cc(N2CCN(S(=O)(=O)c3cc(F)ccc3C)CC2)nc(NC2CCCCC2)n1`, for which the RP-LC retention time is 864 s.

In the case of `COc1ccc(-c2c(C)noc2NC(C)=O)cc1S(=O)(=O)Nc1c(C)cc(C)cc1C`, the RP-LC retention time came to 838 s.

As for `CCc1nc(-c2csc(S(=O)(=O)N3CCCC(C(=O)Nc4ccc(C)c(Cl)c4)C3)c2)no1` (centres undefined), the RP-LC retention time was 1180 s.

In turn, `COc1ccc2c(c1)OC1(C)CC2C(S(=O)(=O)c2ccc(C)c(C)c2)C(=O)N1C` (centres undefined) gave an RP-LC retention time of 1030 s.

Compound `Cc1ccc(NC(=O)Cn2ccc3ccc(-c4nnc(C)o4)cc32)cc1` registered an RP-LC retention time of 824 s.

For the compound `O=C(NCc1cc(-c2ccc3c(c2)OCO3)on1)c1c(F)cccc1Cl`, the RP-LC retention time is 785 s.

As to `O=C(Cn1cnc2cc3c(cc21)OCCO3)NCc1ccc2c(c1)OCCCO2`, the RP-LC retention time was determined as 596 s.

`CC(O)(c1ccccc1)C(c1ccccc1)C1CCCCN1` (centres undefined) yielded an RP-LC retention time of 747 s.

`O=C(CCNc1cnc2cnccn12)NCc1ccc2c(c1)OCO2` had an RP-LC retention time of 564 s.

`CS(=O)(=O)c1ccc(CC(=O)N2CCN(c3ccc(=O)n(-c4ccc(Cl)cc4)n3)CC2)cc1` came in with an RP-LC retention time of 739 s.

In the case of `Fc1cccc(CN2CCc3nc(N4CCN(c5ncccn5)CC4)ncc3C2)c1`, the RP-LC retention time was found to be 633 s.

For `O=C(NCc1ccccc1)C1CC(=O)N(c2n[nH]c3cccc(F)c23)C1` (centres undefined), the RP-LC retention time was 684 s.

Consider `O=C(CC(=O)Nc1ccc(F)cc1Cl)Nc1ccc2nc3n(c(=O)c2c1)CCCCC3`, for which the RP-LC retention time turned out to be 814 s.

For `N#Cc1ccccc1CN1CCC2(CCC2O)CC1` (centres undefined), the RP-LC retention time turned out to be 565 s.

Regarding `COC(=O)c1cccc(NC(=O)Cn2c(C)cc(-c3nnc(C4CCC4)o3)c2C)c1`, the RP-LC retention time came to 882 s.

Regarding `COc1cccc(-n2nnc(C(=O)O)c2C(F)(F)F)c1`, the RP-LC retention time stood at 752 s.

Regarding `CCC(=O)Nc1nnc(SCc2nnc(-c3ccccc3)o2)s1`, the RP-LC retention time amounted to 739 s.

`Cc1ccc(C(=O)NC2CCN(c3cc(-c4cccs4)[nH]n3)C2)cc1` (centres undefined): the RP-LC retention time is 733 s.

`COC(=O)c1nc(NC(=O)Cn2nc3c(cc2=O)CCCC3)sc1CC(C)C` showed an RP-LC retention time of 855 s.

Take `Cc1ccc(-c2nnc(CC(=O)NC3CCCCC3)o2)cc1`: the RP-LC retention time was determined as 830 s.

For `CC(C)n1c(=O)sc2cc(S(=O)(=O)N3CCC(C(=O)Nc4cccc(F)c4)CC3)ccc21`, the RP-LC retention time is 1010 s.

Compound `C=CCn1c(=O)c2ccccc2n(Cc2nc(-c3ccccc3OC)no2)c1=O` came in with an RP-LC retention time of 940 s.

In the case of `O=C(NCC#CCN1CCc2ccccc2C1)c1cc(C2CC2)on1`, the RP-LC retention time was found to be 579 s.

For `CCOc1cccc(C2c3[nH]c4ccccc4c3CCN2C(=O)C2CC2)c1` (centres undefined), the RP-LC retention time amounted to 1100 s.

Take `COCCn1c(CCCC(=O)NC2CCCCCC2)nc2cccnc21`: the RP-LC retention time came to 667 s.

`CS(=O)(=O)N1C[C@H]2CCN(Cc3cccc(Cl)c3F)C[C@H]21` returned an RP-LC retention time of 607 s.

For `CCOc1cc(C2C(C(=O)OC(C)C)=C(C)N=C3SCCC(=O)N32)ccc1OC(C)=O` (centres undefined), the RP-LC retention time came to 908 s.

Turning to `Cc1ccc(CNC(=O)C2(C)CN(S(C)(=O)=O)CC(=O)N2c2ccc(F)cc2C)cc1` (centres undefined), the RP-LC retention time stood at 790 s.

As for `Cc1ccccc1NC(=O)C1CCc2nc(N3CCOCC3)ncc2C1` (centres undefined), the RP-LC retention time was 723 s.

In the case of `CN1CCCc2cc(C(CNC(=O)C(=O)NCc3ccccc3)N3CCCC3)ccc21` (centres undefined), the RP-LC retention time was 710 s.

`O=C1NCCCn2cc(S(=O)(=O)Nc3ccc(N4CCOCC4)cc3)cc21`: the RP-LC retention time is 596 s.

In turn, `COc1ccc(CNC(=O)c2c(C)sc3ccn(C)c(=O)c23)cc1OC` yielded an RP-LC retention time of 674 s.

With `CN(C)CCCNC(=O)C1CCCN(c2cnc3nccnc3c2)C1` (centres undefined), the RP-LC retention time came out at 562 s.

Compound `CN(CC1CCOCC1)S(=O)(=O)c1ccccc1F` returned an RP-LC retention time of 804 s.

`COc1cc(NC(=O)C2CC(=O)N(CCc3c[nH]c4ccc(C)cc34)C2)cc(OC)c1OC` (centres undefined) showed an RP-LC retention time of 753 s.

On to `Cc1cc(NS(=O)(=O)c2cc(-c3[nH]ncc3C(=O)N3CCCCC3)oc2C)ccc1F`, for which the RP-LC retention time was 783 s.

On to `Cc1cnn(Cc2nc(-c3ccc(NC(=O)Cc4ccccc4C)cc3)oc2C)c1`, for which the RP-LC retention time came out at 954 s.

`CCOC(=O)c1noc2ncnc(Nc3ccc(OC)cc3)c12` showed an RP-LC retention time of 717 s.

Take `O=C(C1CCCO1)N1CCC(OCc2nc(-c3ccncc3)no2)CC1` (centres undefined): the RP-LC retention time was 585 s.

Take `CCCn1cc(CCNS(=O)(=O)c2ccc(F)cc2Cl)c2cccnc21`: the RP-LC retention time came out at 877 s.

Take `O=C(Cn1cnc2nc(N3CCC(C(=O)NC4CC4)CC3)sc2c1=O)Nc1ccccc1Cl`: the RP-LC retention time is 665 s.

`O=C(NC1CCCCCCC1)C1CCCN(c2nc3ccccc3n(Cc3ccccc3)c2=O)C1` (centres undefined) returned an RP-LC retention time of 1370 s.

As to `N#CC1=CN(c2ccc3c(c2)CCC3)c2ccccc2S1(=O)=O`, the RP-LC retention time came out at 1010 s.

In the case of `CCn1cc(S(=O)(=O)N[C@@H]2CN(Cc3ccccn3)C[C@H]2CN(C)C)cn1`, the RP-LC retention time was determined as 524 s.

In turn, `Cc1ccnc(C(=O)Nc2ccc(Nc3cc(N4CCOCC4)nc(C)n3)cc2)n1` had an RP-LC retention time of 566 s.

`COc1ccc(C)cc1NC(=O)N1CCC(CC(=O)N2CCCCC2)CC1`: the RP-LC retention time was 811 s.

Turning to `CCSc1nnc(NC(=O)CSc2nc3ccccc3o2)s1`, the RP-LC retention time is 832 s.

`CC1=C(c2ccc(C)c(C)c2)S(=O)(=O)N=C1N1CCCN(C(=O)C2CC2)CC1`: the RP-LC retention time turned out to be 793 s.

Turning to `CCOc1ccccc1-c1nn2c(CSc3ccccc3)nnc2s1`, the RP-LC retention time is 1120 s.

In turn, `CCn1c(=O)n(CC)c2cc(N3CCCC3)c(NC(=O)NCc3ccc(F)cc3)cc21` came in with an RP-LC retention time of 648 s.

In turn, `O=C(NCCc1csc(-c2cccc(F)c2)n1)C1CCCC1` came in with an RP-LC retention time of 832 s.

`CN(C)C(=O)c1ccc2c(c1)n(Cc1cccc(F)c1)c(=O)c1ccnn12`: the RP-LC retention time came to 801 s.

For `COc1ccc2cc3c(=O)n(Cc4ccccc4)nc-3oc2c1`, the RP-LC retention time came to 833 s.

The compound `Cc1ccc(-n2nc(N3CCCN(C(=O)c4n[nH]c5c4CCCC5)CC3)ccc2=O)cc1` came in with an RP-LC retention time of 679 s.

With `CCCNC(=O)Cc1c(C)nc2nc(-c3ccccc3)nn2c1C`, the RP-LC retention time is 704 s.

Compound `Cn1ncc2c(N3CCSCC3)nc(C(=O)NCCc3ccccn3)nc21` registered an RP-LC retention time of 572 s.

Turning to `CC1=NS(=O)(=O)N(Cc2ccccc2)C=C1C(=O)OCc1noc(-c2cccc(F)c2)n1`, the RP-LC retention time is 1130 s.

In turn, `COc1ccc(-c2noc(-c3nc(Cc4cccc(F)c4)no3)n2)cc1OC` yielded an RP-LC retention time of 1100 s.

As to `Cc1nc(NC2CCCCC2)sc1C(=O)Nc1ccc(F)cc1F`, the RP-LC retention time stood at 855 s.

As for `CCCc1cc(N2CCN(C(=O)c3ccc(C)s3)CC2)nc2nnc(C)n12`, the RP-LC retention time stood at 643 s.

With `Cc1cccc2nnc(N3CCN(C(=O)c4ccc(C(F)(F)F)cc4)CC3)n12`, the RP-LC retention time is 716 s.

The compound `CCOc1ccccc1NC(=O)C1CCN(C(=O)C2Sc3ccccc3NC2=O)CC1` (centres undefined) showed an RP-LC retention time of 814 s.

Compound `Cc1cccc(NC(=O)Cn2nnc(-c3ccccc3)n2)c1C` showed an RP-LC retention time of 588 s.

On to `O=c1ccn(-c2ccccc2)nc1-c1nc(-c2ccccn2)no1`, for which the RP-LC retention time was 685 s.

Turning to `CN1CCC(NC(=O)C2CCN(c3nc4ccc(-c5cccs5)nc4s3)CC2)CC1`, the RP-LC retention time is 654 s.
